Results reported in patent publication US11434237B2, “Selective ligands for tau aggregates” (KARIN & STEN MORTSTEDT CBD SOLUTIONS AB, priority 2017, dated 2022).
“Also recorded” adds a separate entry of the source.

How the values were obtained:
[1] = target: T1, Aβ aggregates (Homo sapiens, UniProt P05067); assay: Compound and antibody 4G8 double staining of AD brain tissue sections; assay type: binding; settings: for Overlap between Fluorescence from tested compound and fluorescence from 4G8 observed / Fluorescence from tested compound observed / Staining of / selectivity for Aβ and tau aggregates in AD brain sections: 100 nM compound; for Overlap between Fluorescence from tested compound and fluorescence from 4G8 observed / Fluorescence from tested compound observed: human AD brain tissue sections; for Overlap between Fluorescence from tested compound and fluorescence from 4G8 observed: Aβ antibody 4G8; for Fluorescence from tested compound observed: double staining with Aβ antibody 4G8; for Staining of / selectivity for Aβ and tau aggregates in AD brain sections: stained in combination with 4G8; for Fluorescence from 4G8 observed: signal of Aβ antibody 4G8 in the section stained with 100 nM of the compound
T1 construct: compound and antibody double staining of Aβ or tau aggregates; from tissue; host or cells: human AD brain tissue sections (20 μm)
T1 sequence (P05067 672-713 limits assumed): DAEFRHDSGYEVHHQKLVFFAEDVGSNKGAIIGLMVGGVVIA
Procedure: (§1) To achieve compound and antibody double staining of Aβ or tau aggregates, tissue sections (20 μm) from human AD brain were fixed in 70% EtOH at 4° C. for 3 min, rehydrated in distilled water and then incubated in PBS for 30 min. Sections were blocked and permeabilized in PBS with 5% normal goat serum and 0.1% triton X-100 (blocking buffer) for 1 h at room temperature (RT). Antibody 4G8 (Biolegend, San Diego, Calif., USA) reactive to Aβ, and AT100 (Thermo Fisher Scientific, Waltham, Mass., USA) directed against tau phosphorylated at […] (3) were diluted 1:500 and 1:1000, respectively, in blocking buffer and added to the sections. After 16 h incubation at 4° C. unbound antibody was removed by washing in PBS with 0.1% triton X-100 (PBS-T) 3×10 min. To visualize antibody binding to Aβ or tau aggregates sections were incubated with goat anti-mouse secondary antibody labelled with Alexa 647 (Thermo Fisher Scientific). The antibody was diluted 1:200 in blocking buffer and after 1 h incubation at RT sections were washed in PBS 3×10 min. Example Compound 3a, Example Compound 3b, Example Compound 3c, Example Compound 3d, Example Compound 3e, Example Compound 3f, Example Compound 3g, Example Compound 3h, Example Compound 3i, Example Compound 3j, Example Compound 3k, Example Compound 3m, Example Compound 3n, Example Compound 3o, Example Compound 3p, Example Compound 3q, Example Compound 3r, Example Compound 3s, Example Compound 3t, Example Compound 3u, Example Compound 8a, Comparative Example 1, Comparative Example 2, Comparative Example 3 and Comparative Example 4 were dissolved in DMSO to a concentration of 1.5 mM and then further diluted in PBS to a final concentration of 100 nM compound prior to staining. The tissue sections were then stained for 30 min at RT with these freshly prepared solutions containing 100 nM of the respective compound in PBS. After three washes in PBS the sections were mounted in Dako mounting medium for fluorescence (Dako Cytomation, Glostrup, Denmark) and allowed to dry overnight before analysis. Fluorescence images were collected using an inverted LSM 780 confocal microscope (Carl Zeiss, Oberkochen, Germany) with the following excitation/emission wavelengths optimized for each compound: 458/484-600 (Comparative Example 1, Comparative Example 3), 561/569-648 (Example Compound 3a, Example Compound 3b, Example Compound 3c, Example Compound 3d, Example Compound 3e, Example Compound 3f, Example Compound 3g, Example Compound 3h, Example Compound 3i, Example Compound 3j, Example Compound 3k, Example Compound 3m, Example Compound 3n, Example Compound 3o, Example Compound 3p, Example Compound 3q, Example Compound 3r, Example Compound 3s, Example Compound 3t, Example Compound 3u, Example Compound 8a, Comparative Example 2 and Comparative Example 4) and 633/638-755 (Alexa 647). To visualize autofluorescent lipofuscin excitation/emission wavelengths 405/410-480 or 405/410-514 were used.

[2] = target: T2, tau aggregates (Homo sapiens, UniProt P10636); assay: Compound and antibody AT100 double staining of AD brain tissue sections; assay type: binding; settings: for Labelling of immune-positive NFTs and dystrophic neurites / Fluorescence from tested compound observed / Overlap between Fluorescence from tested compound and fluorescence from AT-100 observed: 100 nM compound; for Labelling of immune-positive NFTs and dystrophic neurites: AT100 co-staining, AD brain sections; for Fluorescence from tested compound observed / Overlap between Fluorescence from tested compound and fluorescence from AT-100 observed: human AD brain tissue sections; for Fluorescence from tested compound observed: double staining with tau antibody AT-100; for Overlap between Fluorescence from tested compound and fluorescence from AT-100 observed: tau antibody AT-100; for Fluorescence from AT-100 observed: signal of tau antibody AT-100 in the section stained with 100 nM of the compound
T2 construct: tissue sections (20 μm) from human AD brain; from tissue; host or cells: human AD brain tissue sections (20 μm)
T2 sequence (P10636 1-441 isoform P10636-8): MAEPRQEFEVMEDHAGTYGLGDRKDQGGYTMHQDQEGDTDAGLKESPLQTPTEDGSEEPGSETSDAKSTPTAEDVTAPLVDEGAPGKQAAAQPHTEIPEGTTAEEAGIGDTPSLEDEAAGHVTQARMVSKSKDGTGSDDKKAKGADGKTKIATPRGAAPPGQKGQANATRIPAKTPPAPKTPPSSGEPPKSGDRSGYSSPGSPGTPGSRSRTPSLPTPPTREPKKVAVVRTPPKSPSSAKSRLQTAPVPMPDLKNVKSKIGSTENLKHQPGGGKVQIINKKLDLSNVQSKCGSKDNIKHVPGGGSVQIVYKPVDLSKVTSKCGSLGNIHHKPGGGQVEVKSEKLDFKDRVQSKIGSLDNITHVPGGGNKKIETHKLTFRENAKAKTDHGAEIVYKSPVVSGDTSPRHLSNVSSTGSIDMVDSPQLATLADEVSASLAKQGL
Procedure: as §1

Row | SMILES | Overlap between Fluorescence from tested compound and fluorescence from 4G8 observed [1] | Fluorescence from tested compound observed [1] | Fluorescence from 4G8 observed [1] | Fluorescence from tested compound observed [2] | Overlap between Fluorescence from tested compound and fluorescence from AT-100 observed [2] | Fluorescence from AT-100 observed [2] | Staining of / selectivity for Aβ and tau aggregates in AD brain sections [1] | Labelling of immune-positive NFTs and dystrophic neurites [2]
1 | CCn1c(/C=C/c2ccc(-c3ccc(C(=O)OC)s3)s2)nc2ccccc21 [Comparative Example 1] | yes | Yes | yes | – | – | – | staining towards immune-positive Aβ aggregates, as well as some weak staining of tau-like pathology; also recorded: selectivity for Aβ | –
2 | COC(=O)Cc1cc(-c2ccc(-c3nc4ccccc4s3)s2)sc1-c1cc(C(=O)OC)cs1 [Comparative Example 2] | – | no | yes | – | – | – | did not display any substantial staining; also recorded: no staining | –
3 | O=C(O)Cc1cc(-c2ccc(-c3nc4ccccc4s3)s2)sc1-c1cc(C(=O)O)cs1 [Comparative Example 3] | yes | yes | yes | – | – | – | staining of both Aβ and tau aggregates; also recorded: no selectivity | –
4 | COC(=O)c1csc(-c2ccc(-c3ccc(-c4nc5ccccc5s4)s3)s2)c1 [Comparative Example 4] | – | no | yes | – | – | – | did not display any substantial staining; also recorded: no staining | –
5 | CC[n+]1c(/C=C/c2ccc(-c3cccs3)s2)sc2ccccc21 [Example Compound 3c] | no correlation and no | yes | yes | yes | yes | yes | – | labelled both immune-positive NFTs and dystrophic neurites
6 | CC[n+]1c(/C=C/c2ccc(-c3ccc(CC(=O)OC)s3)s2)sc2ccccc21.[I-] [Example Compound 3d] | no correlation and no | yes | yes | yes | yes | yes | – | labelled both immune-positive NFTs and dystrophic neurites
7 | CC[n+]1c(/C=C/c2ccc(-c3ccc(C(=O)OC)s3)s2)sc2cc(OC)ccc21.[I-] [Example Compound 3e] | no correlation and no | yes | yes | yes | yes | yes | – | labelled both immune-positive NFTs and dystrophic neurites
8 | COC(=O)c1ccc(-c2ccc(/C=C/c3sc4ccccc4[n+]3C)s2)s1.[I-] [Example Compound 3f] | no correlation and no | yes | yes | yes | yes | yes | – | labelled both immune-positive NFTs and dystrophic neurites

Now from value to compound, other results behind:

Row | Overlap between Fluorescence from tested compound and fluorescence from 4G8 observed [1] | Fluorescence from tested compound observed [1] | Fluorescence from 4G8 observed [1] | Fluorescence from tested compound observed [2] | Overlap between Fluorescence from tested compound and fluorescence from AT-100 observed [2] | Fluorescence from AT-100 observed [2] | SMILES | Staining of / selectivity for Aβ and tau aggregates in AD brain sections [1] | Labelling of immune-positive NFTs and dystrophic neurites [2]
9 | no correlation and no | yes | yes | yes | yes | yes | CC[CH-][n+]1c(/C=C/c2ccc(-c3ccc(C(=O)OC)s3)s2)sc2ccccc21 [Example Compound 3g] | – | labelled both immune-positive NFTs and dystrophic neurites
10 | no correlation and no | yes | yes | yes | yes | yes | CC[n+]1c(/C=C/c2ccc(-c3ccc(OC)s3)s2)sc2ccccc21.[I-] [Example Compound 3h] | – | labelled both immune-positive NFTs and dystrophic neurites
11 | no correlation and no | yes | yes | yes | yes | yes | CC[n+]1c(/C=C/c2ccc(-c3ccc(C(=O)OC)o3)o2)sc2ccccc21.[I-] [Example Compound 3i] | – | labelled both immune-positive NFTs and dystrophic neurites
12 | no correlation and no | yes | yes | yes | yes | yes | CC[n+]1c(/C=C/c2cnc(-c3ccc(C(=O)OC)s3)s2)sc2ccccc21.[I-] [Example Compound 3j] | – | labelled both immune-positive NFTs and dystrophic neurites
13 | no correlation and no | yes | yes | yes | yes | yes | CC[n+]1c(/C=C/c2ccc(-c3ccc(C(=O)OC)cn3)s2)sc2ccccc21.[I-] [Example Compound 3k] | – | labelled both immune-positive NFTs and dystrophic neurites
14 | no correlation and no | yes | yes | yes | yes | yes | CC[n+]1c(/C=C/c2ccc(-c3ccc4c(c3)OCO4)s2)sc2ccccc21.[I-] [Example Compound 3m] | – | labelled both immune-positive NFTs and dystrophic neurites
15 | no correlation and no | yes | yes | yes | yes | yes | CC[n+]1c(/C=C/c2ccc(-c3ccc4nsnc4c3)s2)sc2ccccc21 [Example Compound 3n] | – | labelled both immune-positive NFTs and dystrophic neurites
